Results reported in patent US7655225B2, “Methods of expanding stem and progenitor cells and expanded cell populations obtained thereby” (Gamida Cell, Ltd., priority 2002, dated 2010).

Tests used:
CD34+ cells = experiment: Self-renewal potential: colony-forming cells (CFU) from CD34+ cultures; assay type: cell-based, human; conditions: for CFUc: eight-week cultures, FIG. 2d, control 0; for numbers of CD34+ Lin− colony-forming cells, fold higher than untreated control: four weeks, with IL-3, FIG. 6d; for number of colony-forming cells of CD34+ vs untreated control: 5 and 7 weeks incubation, different concentrations, TPO, FLT-3, IL-6, IL-3, FIGS. 15a-c
Excerpt: Ex vivo expansion of progenitor cells: Enriched CD34^+ cell fractions were cultures in 24-well Costar Cell Culture Clusters (Corning Inc., Corning, N.Y.) or in Culture Bags (American Fluoroseal Corp.) with alpha minimal essential medium supplemented with 10% fetal bovine serum (FBS, Biological Industries), at about 1-3×10^4 cells/ml medium. The media were further supplemented with the following human recombinant cytokines (all obtained from Perpo Tech, Inc., Rocky Hill, N.J.): Thrombopoietin (TPO), 50 ng/ml; interleukin 6 (IL-6), 50 ng/ml; FLT-3 ligand, 50 ng/ml; and IL-3, 20 ng/ml. The cultures were incubated at 37° C. in an atmosphere of 5% CO2 in air with extra humidity. At weekly intervals cell cultures were semi-depopulated and supplemented with fresh medium containing the cytokines. Following different incubation periods, the cells were harvested, stained with trypan blue and enumerated. The total cell counts, numbers of CD34^+ cells and subsets thereof, and the number of colony-forming cells (CFU) are presented herein as cumulative numbers, with the assumption that the cultures had not been passaged, namely, the numbers of cells per ml were multiplied by the number of passages performed. Self-renewal potential evaluations: The self-renewal potential of stem cells was determined in vitro by long-term colony formation. Cells were washed and seeded in a semi-solid methylcellulose medium supplemented with 2 IU/ml erythropoietin ([…] Int., Switzerland), stem cell factor and IL-3, both at 20 ng/ml (Perpo Tech), and G-CSF and GM-CSF, both at 10 ng/ml (Perpo Tech). The resulting colonies were scored after two weeks of incubation at 37° C. in a humidified atmosphere of 5% CO2 in air. Colonies were classified as blast, mixed, erythroid, myeloid, and megakaryocytic, according to their cellular composition.

mononuclear cells (MNC) = experiment: Ex vivo expansion of stem and progenitor cells in mixed cells culture: cell enumeration and FACS; assay type: cell-based, human; conditions: for cumulative number of CD34+ cells per culture bag: control 2.56×10^6; for Portion of CD34+ cells (%): control 0.2; for Number of CD34+ cells (×10^4): control 256.0; for cumulative number of CD34+ cells: TEPA first three weeks only, FIGS. 16a-b
Method: Sample collection and processing: Samples were obtained from umbilical cord blood after a normal full-term delivery and were frozen within 24 hours pospartum. The blood cells were thawed in Dextran buffer and incubated for […] in MEM (Biological Industries, Israel) supplemented with 10% fetal calf serum (FCS; Biological Industries). The cells were then layered on Ficoll-Hypaque (density 1.077 gram/ml; Sigma) and centrifuged at 400 g for 30 minutes at room temperature. The mononuclear cells in the interface layer were then collected, washed three times in phosphate-buffered saline (PBS; Biological Industries), and re-suspended in PBS containing 0.5% human serum albumin (HSA). The cells were then split into two fractions, the first being the mononuclear cells (MNC) and the second fraction was used for purifying CD34^+ cells by immunomagnetic separation using the “MiniMACS CD34^+ progenitor cell isolation kit” (Miltenyi Biotec, Auburn, Calif.) according to the manufacturer's recommendations. The purity of the CD34^+ cells obtained ranged between 95% and 98%, based on Flow Cytometry evaluation (see below). Ex vivo expansion of progenitor cells: The non-purified mononuclear cells (MNC), obtained as described hereinabove, were seeded in Culture Bags (American Fluoroseal Corp.), with alpha minimal essential medium supplemented with 10% fetal bovine serum (FBS, Biological Industries), at a concentration of about 10^6 cells/ml. The purified CD34^+ cells were similarly seeded in the Culture Bags, at a concentration of […]. The media were supplemented with TEPA chelator and/or with the following human recombinant cytokines (all obtained from Perpo Tech, Inc., Rocky Hill, N.J.): Thrombopoietin (TPO), 50 ng/ml; interleukin 6 (IL-6), 50 ng/ml; FLT-3 ligand, 50 ng/ml and a stem cell factor (SCF), 50 ng/ml; occasionally SCF was replaced by IL-3, 20 ng/ml. For non-hemopoietic differentiation, FGF, EGF, NGF, VEGF, LIF or Hepatocyte growth factor, were used alone or in various combinations. All cultures were incubated at 37° C. in an atmosphere of 5% CO2 in air with extra humidity. At weekly intervals, the cell cultures were semi-depopulated and supplemented with fresh medium containing cytokines. Following different incubation periods, cells were harvested, stained with trypan blue and enumerated. Determining the density of stem and progenitor subset populations following expansion was carried out as described in the experimental procedures section of Example 3 above. Non-purified mononuclear cells (MNC) were seeded in culture bags and were provided with nutrients and cytokines as described above. The MNC cultures were either treated or untreated (untreated controls) with TEPA-chelator. The treated MNC cultures were supplemented with TEPA for only the first three weeks and from week three onward were topped with chelator-free media. The pre-purified CD34^+ cultures were not supplemented with TEPA and served as positive controls. The cultures were analyzed weekly during a 12-week period. Non-purified (mixed cells) mononuclear cells (MNC) were seeded in culture bags and were provided with nutrients and cytokines as described in Example 4 above. The mixed cell cultures were either untreated (control) or treated with Cu-TEPA chelate. The treated MNC cultures were supplemented with Cu-TEPA chelate for only the first three weeks and from week three onward were topped with chelator-free media. All cultures were analyzed […].

[1] = 50 μM, MNC culture, eight weeks after seeding
[2] = 100 μM, MNC culture, eight weeks after seeding

## NCCNCCNCCNCCN.[Cl-].[Cl-].[Cu+2] [TEPA-Cu chelate, tetraethylenepentamine-copper chelate]
CD34+ cells; 5 μM
  CFUc: 0 CFUc
CD34+ cells; 10 μM
  CFUc: 1 CFUc
CD34+ cells; 15 μM
  CFUc: 30 CFUc
CD34+ cells; 20 μM
  CFUc: 120 CFUc
  numbers of CD34+ Lin− colony-forming cells, fold higher than untreated control: 7 fold
CD34+ cells; 40 μM
  CFUc: 400 CFUc
  numbers of CD34+ Lin− colony-forming cells, fold higher than untreated control: 9 fold
CD34+ cells; 50 μM
  numbers of CD34+ Lin− colony-forming cells, fold higher than untreated control: 7.5 fold
CD34+ cells; 100 μM vs 10 and 50 μM, 8 week-old cultures, FIG. 1
  effectiveness of higher vs lower concentrations on colony-forming cells: substantially more effective
CD34+ cells
  number of colony-forming cells of CD34+ vs untreated control: substantially increased
CD34+ cells; 8 week-old cultures, FIG. 1
  colony-forming cells of CD34+ vs cultures treated only with cytokines: substantially more colony-forming cells
CD34+ cells; longer incubation (5, 6, 8 weeks), chelate supplemented first three weeks, FIGS. 2b-d
  numbers of CFUc vs non-treated control (cytokines only): substantially higher
Mononuclear cells (MNC); 50 μM, MNC culture, 8 weeks
  cumulative number of CD34+ cells per culture bag: 12.37×10^6
Mononuclear cells (MNC); [1]
  Portion of CD34+ cells (%): 1.4%
  Number of CD34+ cells (×10^4): 1237.3 ×10^4
Mononuclear cells (MNC); 100 μM, MNC culture, 8 weeks, control 2.1×10^5
  cumulative number of CD34+CD38− cells: 6.1×10^5
Mononuclear cells (MNC); 100 μM, MNC culture, 8 weeks
  cumulative number of CD34+ cells per culture bag: 32.85×10^6
Mononuclear cells (MNC); [2]
  Portion of CD34+ cells (%): 1.2%
  Number of CD34+ cells (×10^4): 3285.3 ×10^4
Mononuclear cells (MNC); 100 μM, MNC culture, eight weeks after seeding, control 21
  Nunber of CD34/38− cells (×10^4): 61 ×10^4

## NCCNCCNCCNCCN [TEPA chelator, tetraethylenepentamine]
CD34+ cells
  number of colony-forming cells of CD34+ vs untreated control: substantially increased
Mononuclear cells (MNC); MNC culture, after 2 weeks, FIG. 17
  cumulative number of CD34+CD38− cells: non-detectable
Mononuclear cells (MNC); MNC culture, after 2 weeks
  cumulative number of CD34+ cells: non-detectable
Mononuclear cells (MNC); MNC culture, after 12 weeks, FIG. 17
  cumulative number of CD34+CD38− cells: 2.5×10^7 cells/ml
Mononuclear cells (MNC); MNC culture, after 12 weeks
  cumulative number of CD34+ cells: over 8×10^7 cells/ml
Mononuclear cells (MNC); TEPA-treated MNC cultures, 12-week period
  stem and progenitor cells densities vs pre-purified CD34+ cells cultures (not treated with TEPA): either equalized or surpassed
